Experimental data: patent publication US20240041050A1, “CELL PENETRATING PEPTIDE MEDIATED RNA TRANSDUCTION WITHIN INSECT CELLS” (PIONEER HI-BRED INTERNATIONAL, INC., priority 2020, published 2024)
Ends that are not written are not given here.

Tests used:
S2 cells = assay: CPP-mediated enhancement of Cy3-dsRNA uptake into insect cells; assay type: cell-based, Drosophila melanogaster
From the text: (§1) Sample preparation and analysis methods were based on those previously reported (Jafari et al. (201 4) “Serum stability and physicochemical characterization of a novel amphipathic peptide C6M 1 for siRNA delivery”, PLoS One, 9(5), e97797; and Gillet et al. (2017) “Investigating Engineered Ribonucleoprotein Particles to Improve Oral RNAi Delivery in Crop Insect Pests”, Frontiers in Physiology, 8(256), doi: 10.3389/fphys.2017.00256). Reagents are described in Examples 1 and 2. Nanocomplex samples were prepared in one of several ways, depending on type of CPP, RNA, or assay. For insect cell-based assays with CPP-FAM or CPP·mRNA, increasing amounts of CPP (from 25 μM to 100 μM, in 25 μM increments) were used alone or mixed with […] mRNA in water and incubated at 25° C. for 15 minutes prior to cell treatment. […] Final optimal CPP concentration was assessed by amount of fluorescent signal apparent within cells. […] Final optimal molar ratio selected for cell experiments were determined by increase of the apparent size of the Cy3-dsRNA band on a native agarose gel (FIG. 2A and FIG. 2B), and/or appearance and increase in size of the complex peak detected by a Zetasizer Ultra (Malvern Panalytical, Malvern, United Kingdom) DLS instrument (FIG. 2C). […] Final optimal BAPC1 concentration was assessed by amount of fluorescent signal apparent within cells. […]

Sf9 cells = assay: as above; assay type: cell-based, Spodoptera frugiperda
From the text: as §1

[1] = same amount as used in the complexes, no CPP

| Substance | fluorescent signal of YFP or Cy3 in single-component treated cells (S2 cells; [1]) | fluorescent signal in single-component treated cells (Sf9 cells; [1]) | internalization of Cy3-dsRNA versus Cy3-dsRNA alone (S2 cells; 17.6 μg BAPC1 and 100 ng Cy3-dsRNA, N/P ratio of 15) | internalization of Cy3-dsRNA versus Cy3-dsRNA alone (Sf9 cells; 5.9 μg BAPC1 and 100 ng Cy3-dsRNA, N/P ratio of 5, 4 hours) |
| --- | --- | --- | --- | --- |
| UCCUUGAUAUCCGGUUCGGUA / AGGAACUAUAGGCCAAGCCAU (Cy3 at each 5' end, chemistry not fully specified; one strand is listed 3' to 5') [Cy3-siRNA] | Low or no fluorescent signal | Low or no fluorescent signal |  |  |
| bis(FLIVI)-K-KKKK; bis(FLIVIGSII)-K-KKKK (chain 1 FLIVIK(FLIVI)KKKK; chain 2 FLIVIGSIIK(FLIVIGSII)KKKK; also: forms branched peptide capsules) [BAPC1] |  |  | increased internalization of labeled dsRNA | Increased internalization of labeled dsRNA |
